The values below come from ChEMBL document CHEMBL1128274, “6-Aminoquinolones: a new class of quinolone antibacterials?” (1995).

Values after ≈ are worked out from the molar mass of the structure shown.

In one experiment the test system is Acinetobacter calcoaceticus. The experiment is described as follows: Tested in vitro for inhibitory activity against gram negative bacteria Acinetobacter calcoaceticus OSMPV 113 strain. The format is functional.
As usually defined, the MIC is the lowest concentration found to suppress growth. Take `Nc1cc2c(=O)c(C(=O)O)cn(C3CC3)c2cc1N1CCC(O)CC1`: the MIC is 2 µg/mL (≈ 5.82 µM).
The same measure, in the same setting: in the case of `O=C(O)c1cn(C2CC2)c2c(F)c(N3CCSCC3)c(F)cc2c1=O` it was 1 µg/mL (≈ 2.73 µM); in that of `CC(=O)NC1CCN(c2cc3c(cc2N)c(=O)c(C(=O)O)cn3C2CC2)C1` (configuration not stated), 128 µg/mL (≈ 346 µM).
Still for that read-out and setting: the result for `CC(C)(C)n1cc(C(=O)O)c(=O)c2cc(N)c(N3CCc4ccccc43)cc21` reads 8 µg/mL (≈ 21.2 µM).

The test system of the next experiment is Enterobacter cloacae. The experiment is described as follows: Tested in vitro for inhibitory activity against gram negative bacteria Enterobacter cloacae OMNFI 174 strain. It counts as functional.
`Nc1cc2c(=O)c(C(=O)O)cn(C3CC3)c2cc1N1CCC(O)CC1`: 2 µg/mL (≈ 5.82 µM) was the least that counted as inhibitory (MIC).
Same read-out and setting: in the case of `O=C(O)c1cn(C2CC2)c2c(F)c(N3CCSCC3)c(F)cc2c1=O` it was 0.25 µg/mL (≈ 0.682 µM); in that of `CC(=O)NC1CCN(c2cc3c(cc2N)c(=O)c(C(=O)O)cn3C2CC2)C1` (configuration not stated), 128 µg/mL (≈ 346 µM).
As for `CC(C)(C)n1cc(C(=O)O)c(=O)c2cc(N)c(N3CCc4ccccc43)cc21`, the MIC was 8 µg/mL (≈ 21.2 µM).

A further experiment has as its system Escherichia coli. As to the kind of experiment: Tested in vitro for inhibitory activity against gram negative bacteria Escherichia coli ATCC 8739 strain. The format is functional.
`Nc1cc2c(=O)c(C(=O)O)cn(C3CC3)c2cc1N1CCC(O)CC1`: the MIC was 0.03 µg/mL (≈ 0.0874 µM).
The same measure, in the same setting: the result for `O=C(O)c1cn(C2CC2)c2c(F)c(N3CCSCC3)c(F)cc2c1=O` reads 0.01 µg/mL (≈ 0.0273 µM).
Take `CC(=O)NC1CCN(c2cc3c(cc2N)c(=O)c(C(=O)O)cn3C2CC2)C1` (configuration not stated): 4 µg/mL (≈ 10.8 µM) was the least that counted as inhibitory (MIC).
The compound `CC(C)(C)n1cc(C(=O)O)c(=O)c2cc(N)c(N3CCc4ccccc43)cc21` displayed an MIC of 0.12 µg/mL (≈ 0.318 µM).

Another experiment concerns Escherichia coli. The experiment is described as follows: Tested in vitro for inhibitory activity against gram negative bacteria Escherichia coli ISF 432 strain. It counts as functional.
Take `Nc1cc2c(=O)c(C(=O)O)cn(C3CC3)c2cc1N1CCC(O)CC1`: the MIC stood at 0.03 µg/mL (≈ 0.0874 µM).
In turn, `O=C(O)c1cn(C2CC2)c2c(F)c(N3CCSCC3)c(F)cc2c1=O` registered an MIC of 0.008 µg/mL (≈ 0.0218 µM).
Still for that read-out and setting: the result for `CC(=O)NC1CCN(c2cc3c(cc2N)c(=O)c(C(=O)O)cn3C2CC2)C1` (configuration not stated) reads 4 µg/mL (≈ 10.8 µM); that for `CC(C)(C)n1cc(C(=O)O)c(=O)c2cc(N)c(N3CCc4ccccc43)cc21`, 0.12 µg/mL (≈ 0.318 µM).

The next experiment has as its system Shigella. As to the kind of experiment: Tested in vitro for inhibitory activity against gram negative bacteria Shigella enteritidis. The format is functional.
On to `Nc1cc2c(=O)c(C(=O)O)cn(C3CC3)c2cc1N1CCC(O)CC1`, for which 2 µg/mL (≈ 5.82 µM) was the least that counted as inhibitory (MIC).
`O=C(O)c1cn(C2CC2)c2c(F)c(N3CCSCC3)c(F)cc2c1=O` registered an MIC of 0.25 µg/mL (≈ 0.682 µM).
Same read-out and setting: the result for `CC(=O)NC1CCN(c2cc3c(cc2N)c(=O)c(C(=O)O)cn3C2CC2)C1` (configuration not stated) reads 128 µg/mL (≈ 346 µM); that for `CC(C)(C)n1cc(C(=O)O)c(=O)c2cc(N)c(N3CCc4ccccc43)cc21`, 8 µg/mL (≈ 21.2 µM).

The subject of a further experiment is Staphylococcus epidermidis. As to the kind of experiment: Tested in vitro for inhibitory activity against gram positive bacteria Staphylococcus epidermidis HCF berset C strain. The format is functional.
`Nc1cc2c(=O)c(C(=O)O)cn(C3CC3)c2cc1N1CCC(O)CC1`: the lowest concentration to inhibit growth (MIC) was 4 µg/mL (≈ 11.6 µM).
Still for that read-out and setting: the result for `O=C(O)c1cn(C2CC2)c2c(F)c(N3CCSCC3)c(F)cc2c1=O` reads 0.06 µg/mL (≈ 0.164 µM); that for `CC(=O)NC1CCN(c2cc3c(cc2N)c(=O)c(C(=O)O)cn3C2CC2)C1` (configuration not stated), 128 µg/mL (≈ 346 µM); that for `CC(C)(C)n1cc(C(=O)O)c(=O)c2cc(N)c(N3CCc4ccccc43)cc21`, 4 µg/mL (≈ 10.6 µM).

The next experiment relates to Staphylococcus aureus. As to the kind of experiment: Tested in vitro for inhibitory activity against gram positive bacteria Staphylococcus aureus ATCC 6538 strain. It counts as functional.
On to `Nc1cc2c(=O)c(C(=O)O)cn(C3CC3)c2cc1N1CCC(O)CC1`, for which the minimal inhibitory concentration (MIC) turned out to be 4 µg/mL (≈ 11.6 µM).
Turning to `O=C(O)c1cn(C2CC2)c2c(F)c(N3CCSCC3)c(F)cc2c1=O`, the MIC was 0.03 µg/mL (≈ 0.0819 µM).
Turning to `CC(=O)NC1CCN(c2cc3c(cc2N)c(=O)c(C(=O)O)cn3C2CC2)C1` (configuration not stated), the MIC was found to be 128 µg/mL (≈ 346 µM).
Still for that read-out and setting: in the case of `CC(C)(C)n1cc(C(=O)O)c(=O)c2cc(N)c(N3CCc4ccccc43)cc21` it was 2 µg/mL (≈ 5.3 µM).

The test system of another experiment is Staphylococcus aureus. As to the kind of experiment: Tested in vitro for inhibitory activity against gram positive bacteria Staphylococcus aureus MPR 5 strain. It counts as functional.
For `Nc1cc2c(=O)c(C(=O)O)cn(C3CC3)c2cc1N1CCC(O)CC1`, it took 4 µg/mL (≈ 11.6 µM) to inhibit growth (MIC).
Still for that read-out and setting: in the case of `O=C(O)c1cn(C2CC2)c2c(F)c(N3CCSCC3)c(F)cc2c1=O` it was 0.03 µg/mL (≈ 0.0819 µM).
`CC(=O)NC1CCN(c2cc3c(cc2N)c(=O)c(C(=O)O)cn3C2CC2)C1` (configuration not stated) had an MIC of 128 µg/mL (≈ 346 µM).
Compound `CC(C)(C)n1cc(C(=O)O)c(=O)c2cc(N)c(N3CCc4ccccc43)cc21` had a minimal inhibitory concentration (MIC) of 2 µg/mL (≈ 5.3 µM).

Another experiment has as its system Enterococcus faecalis. As to the kind of experiment: Tested in vitro for inhibitory activity against gram positive bacteria Streptococcus faecalis LEP Br strain. It counts as functional.
Compound `Nc1cc2c(=O)c(C(=O)O)cn(C3CC3)c2cc1N1CCC(O)CC1` yielded a minimum inhibitory concentration (MIC) of 8 µg/mL (≈ 23.3 µM).
`O=C(O)c1cn(C2CC2)c2c(F)c(N3CCSCC3)c(F)cc2c1=O` came in with an MIC of 0.5 µg/mL (≈ 1.36 µM).
Still for that read-out and setting: in the case of `CC(=O)NC1CCN(c2cc3c(cc2N)c(=O)c(C(=O)O)cn3C2CC2)C1` (configuration not stated) it was 128 µg/mL (≈ 346 µM); in that of `CC(C)(C)n1cc(C(=O)O)c(=O)c2cc(N)c(N3CCc4ccccc43)cc21`, 64 µg/mL (≈ 170 µM).

Another experiment deals with Staphylococcus epidermidis. The experiment is described as follows: Tested in vitro for inhibitory activity against gram positive bacteria Staphylococcus epidermidis CPHL A2 strain. The format is functional.
On to `Nc1cc2c(=O)c(C(=O)O)cn(C3CC3)c2cc1N1CCC(O)CC1`, for which it took 2 µg/mL (≈ 5.82 µM) to inhibit growth (MIC).
Still for that read-out and setting: in the case of `O=C(O)c1cn(C2CC2)c2c(F)c(N3CCSCC3)c(F)cc2c1=O` it was 0.06 µg/mL (≈ 0.164 µM); in that of `CC(=O)NC1CCN(c2cc3c(cc2N)c(=O)c(C(=O)O)cn3C2CC2)C1` (configuration not stated), 128 µg/mL (≈ 346 µM); in that of `CC(C)(C)n1cc(C(=O)O)c(=O)c2cc(N)c(N3CCc4ccccc43)cc21`, 4 µg/mL (≈ 10.6 µM).

In a further experiment the test system is Klebsiella pneumoniae. The experiment is described as follows: Tested in vitro for inhibitory activity against gram negative bacteria Klebsiella pneumoniae ATCC 10031 strain. The format is functional.
`Nc1cc2c(=O)c(C(=O)O)cn(C3CC3)c2cc1N1CCC(O)CC1` came in with an MIC of 0.03 µg/mL (≈ 0.0874 µM).
Same read-out and setting: in the case of `O=C(O)c1cn(C2CC2)c2c(F)c(N3CCSCC3)c(F)cc2c1=O` it was 0.008 µg/mL (≈ 0.0218 µM); in that of `CC(=O)NC1CCN(c2cc3c(cc2N)c(=O)c(C(=O)O)cn3C2CC2)C1` (configuration not stated), 4 µg/mL (≈ 10.8 µM).
For the compound `CC(C)(C)n1cc(C(=O)O)c(=O)c2cc(N)c(N3CCc4ccccc43)cc21`, the MIC worked out at 0.12 µg/mL (≈ 0.318 µM).

A further experiment concerns Providencia stuartii. As to the kind of experiment: Tested in vitro for inhibitory activity against gram negative bacteria Providencia stuartii CNUR 5 strain. It counts as functional.
As for `Nc1cc2c(=O)c(C(=O)O)cn(C3CC3)c2cc1N1CCC(O)CC1`, the MIC amounted to 8 µg/mL (≈ 23.3 µM).
The same measure, in the same setting: the result for `O=C(O)c1cn(C2CC2)c2c(F)c(N3CCSCC3)c(F)cc2c1=O` reads 0.12 µg/mL (≈ 0.328 µM).
In the case of `CC(=O)NC1CCN(c2cc3c(cc2N)c(=O)c(C(=O)O)cn3C2CC2)C1` (configuration not stated), the MIC was found to be 128 µg/mL (≈ 346 µM).
As for `CC(C)(C)n1cc(C(=O)O)c(=O)c2cc(N)c(N3CCc4ccccc43)cc21`, the MIC amounted to 4 µg/mL (≈ 10.6 µM).

The test system of another experiment is Pseudomonas aeruginosa. As to the kind of experiment: Tested in vitro for inhibitory activity against gram negative bacteria Pseudomonas aeruginosa ATCC 9027 strain. The format is functional.
Compound `Nc1cc2c(=O)c(C(=O)O)cn(C3CC3)c2cc1N1CCC(O)CC1` returned an MIC of 8 µg/mL (≈ 23.3 µM).
For `O=C(O)c1cn(C2CC2)c2c(F)c(N3CCSCC3)c(F)cc2c1=O`, the MIC turned out to be 1 µg/mL (≈ 2.73 µM).
Same read-out and setting: in the case of `CC(=O)NC1CCN(c2cc3c(cc2N)c(=O)c(C(=O)O)cn3C2CC2)C1` (configuration not stated) it was 128 µg/mL (≈ 346 µM); in that of `CC(C)(C)n1cc(C(=O)O)c(=O)c2cc(N)c(N3CCc4ccccc43)cc21`, 32 µg/mL (≈ 84.8 µM).
